Assay results published in patent publication US20080306056A1, “PYRAZOLE-DERIVATIVES AS FACTOR Xa INHIBITORS” (SANOFI-AVENTIS DEUTSCHLAND GMBH, priority 2002, published 2008).
pKi: −log10 of the molar value.

biological target: T1, human factor Xa (Homo sapiens, UniProt P00742); experiment: Factor Xa assay (chromogenic, purified enzyme); format: biochemical; details: inhibition constant for factor Xa; chromogenic substrate S-2765 140 μM, enzyme 0.5 nM, 25° C., pH 7.8; Ki=IC50/{1+(substrate concentration/Km)}; read-out: Ki(FXa)
T1 construct: 25 μl human factor Xa (Enzyme Research Laboratories, Inc; South Bend, Ind.); purchased Enzyme Research Laboratories, Inc; South Bend, Ind
From the text: The ability of the compound of formulae I, Ib and Ic to inhibit factor Xa or factor VIIa or other enzymes like thrombin, plasmin, or trypsin can be assessed by determining the concentration of the compound of the formulae I, Ib and Ic that inhibits enzyme activity by 50%, i.e. the IC50 value, which was related to the inhibition constant Ki. Purified enzymes were used in chromogenic assays. The concentration of inhibitor that causes a 50% decrease in the rate of substrate hydrolysis was determined by linear regression after plotting the relative rates of hydrolysis (compared to the uninhibited control) versus the log of the concentration of the compound of formulae I, Ib and Ic. For calculating the inhibition constant Ki, the IC50 value was corrected for competition with substrate using the formula wherein Km is the Michaelis-Menten constant (Chen and Prusoff, Biochem.
Ki=IC50/{1+(substrate concentration/Km)}
Pharmacol. 22 (1973) 3099-3108; I. H. Segal, Enzyme Kinetics, 1975, John Wiley & Sons, New York, 100-125; which were incorporated herein by reference).
The IC50 was determined by combining in appropriate wells of a Costar half-area microtiter plate 25 μl human factor Xa (Enzyme Research Laboratories, Inc.; South Bend, Ind.) in TBS-PEG; 40 μl 10% (v/v) DMSO in TBS-PEG (uninhibited control) or various concentrations of the compound to be tested diluted in 10% (v/v) DMSO in TBS-PEG; and substrate S-2765 (N(α)-benzyloxycarbonyl-D-Arg-Gly-L-Arg-p-nitroanilide; Kabi Pharmacia, Inc.; Franklin, Ohio) in TBS-PEG.
The assay was performed by pre-incubating the compound of formulae I, Ib and Ic plus enzyme for 10 min. Then the assay was initiated by adding substrate to obtain a final volume of 100 μl. The initial velocity of chromogenic substrate hydrolysis was measured by the change in absorbance at 405 nm using a Bio-tek Instruments kinetic plate reader (Ceres UV900HDi) at 25° C. during the linear portion of the time course (usually 1.5 min after addition of substrate). The enzyme concentration was 0.5 nM and substrate concentration was 140 μM.
The inhibitory activity towards factor VIIa/tissue factor activity was determined using a chromogenic assay essentially as described previously (J. A. Ostrem et al., Biochemistry 37 (1998) 1053-1059 which was incorporated herein by reference). Kinetic assays were conducted at 25° C. in half-area microtiter plates (Costar Corp., Cambridge, Mass.) using a kinetic plate reader (Molecular Devices Spectramax 250). A typical assay consisted of 25 μl human factor VIIa and TF (5 nM and 10 nM, respective final concentration) combined with 40 μl of inhibitor dilutions in 10% DMSO/TBS-PEG buffer (50 mM Tris, 15 mM NaCl, 5 mM CaCl2, 0.05% PEG 8000, pH 8.15). Following a 15 minute preincubation period, the assay was initiated by the addition of 35 μl of the chromogenic substrate S-2288 (D-Ile-Pro-Arg-p-nitroanilide, Pharmacia Hepar Inc., 500 μM final concentration).

T1 sequence (P00742 235-488 limits assumed): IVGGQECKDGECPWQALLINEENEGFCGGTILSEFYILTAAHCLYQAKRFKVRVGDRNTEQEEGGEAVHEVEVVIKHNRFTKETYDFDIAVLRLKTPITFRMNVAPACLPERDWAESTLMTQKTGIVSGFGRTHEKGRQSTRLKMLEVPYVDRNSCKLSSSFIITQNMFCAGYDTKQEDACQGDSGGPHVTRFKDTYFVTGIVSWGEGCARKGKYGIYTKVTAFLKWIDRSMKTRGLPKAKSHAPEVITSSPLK
T1 sequence (P00742 41-179 partner limits assumed): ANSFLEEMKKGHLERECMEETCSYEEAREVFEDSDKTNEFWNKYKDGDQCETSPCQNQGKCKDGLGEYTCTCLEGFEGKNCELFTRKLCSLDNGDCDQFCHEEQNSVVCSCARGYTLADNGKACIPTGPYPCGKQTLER

| pKi | Structure (SMILES) |
| --- | --- |
| 7.96 | O=C(Nc1ccc(N2CCOCC2=O)cc1)c1cc(-c2ccco2)n(Cc2cc(-c3ccc(Cl)s3)on2)n1 [Example 99, 1-[5-(5-Chloro-thiophen-2-yl)-isoxazol-3-ylmethyl]-5-furan-2-yl-1H-pyrazole-3-carboxylic acid [4-(3-oxo-morpholin-4-yl)-phenyl]-amide] |
| 6.84 | CCOC(=O)c1cc(C(=O)NC2CCN(C(C)C)CC2)n(Cc2cc(-c3ccc(Cl)s3)on2)n1 [Example 23, 1-[5-(5-Chloro-thiophen-2-yl)-isoxazol-3-ylmethyl]-5-(1-isopropyl-piperidin-4-ylcarbamoyl)-1H-pyrazole-3-carboxylic acid ethyl ester] |
| 6.74 | CC(C)N1CCC(NC(=O)c2cc(C(=O)N3CCCC3)nn2Cc2cc(-c3ccc(Cl)s3)on2)CC1 [Example 48, 2-[5-(5-Chloro-thiophen-2-yl)-isoxazol-3-ylmethyl]-5-(pyrrolidine-1-carbonyl)-2H-pyrazole-3-carboxylic acid (1-isopropyl-piperidin-4-yl)-amide] |
| 6.62 | CC(C)OC(=O)CNC(=O)c1cc(C(=O)NC2CCN(C(C)C)CC2)n(Cc2cc(-c3ccc(Cl)s3)on2)n1 [Example 90, {[1-[5-(5-Chloro-thiophen-2-yl)-isoxazol-3-ylmethyl]-5-(1-isopropyl-piperidin-4-ylcarbamoyl)-1H-pyrazole-3-carbonyl]-amino}-acetic acid isopropyl ester] |
| 6.67 | CC(C)N1CCC(NC(=O)c2cc(C(=O)O)nn2Cc2cc(-c3ccc(Cl)s3)on2)CC1 [Example 21, 1-[5-(5-Chloro-thiophen-2-yl)-isoxazol-3-ylmethyl]-5-(1-isopropyl-piperidin-4-ylcarbamoyl)-1H-pyrazole-3-carboxylic acid] |
| 6.69 | O=C(NC1CCN(c2ccncc2)CC1)c1cc(-c2cccs2)nn1Cc1cc(-c2ccc(Cl)s2)on1 [Example 18, 2-[5-(5-Chloro-thiophen-2-yl)-isoxazol-3-ylmethyl]-5-thiophen-2-yl-2H-pyrazole-3-carboxylic acid (3,4,5,6-tetrahydro-2H-[1,4′]bipyridinyl-4-yl)-amide] |
| 6.53 | CC(C)N1CCC(NC(=O)c2c(-c3ccc(Cl)cc3Cl)cnn2Cc2cc(-c3ccc(Cl)s3)on2)CC1 [Example 7, 2-[5-(5-Chloro-thiophen-2-yl)-isoxazol-3-ylmethyl]-4-(2,4-dichloro-phenyl)-2H-pyrazole-3-carboxylic acid (1-isopropyl-piperidin-4-yl)-amide] |
| 7.44 | CCOC(=O)CNC(=O)c1cc(C(=O)NC2CCN(C(C)C)CC2)n(CC(=O)Nc2ccc(Cl)cn2)n1 [Example 93, {[1-[(5-Chloro-pyridin-2-ylcarbamoyl)-methyl]-5-(1-isopropyl-piperidin-4-ylcarbamoyl)-1H-pyrazole-3-carbonyl]-amino}-acetic acid ethyl ester] |
| 7.14 | CC(C)N1CCC(NC(=O)c2cc(C(=O)N3CCCC3C(F)(F)F)nn2Cc2cc(-c3ccc(Cl)s3)on2)CC1 (stereo not drawn) [Example 43, 2-[5-(5-Chloro-thiophen-2-yl)-isoxazol-3-ylmethyl]-5-(2-trifluoromethyl-pyrrolidine-1-carbonyl)-2H-pyrazole-3-carboxylic acid (1-isopropyl-piperidin-4-yl)-amide] |
| 7.64 | CC(C)N1CCC(NC(=O)c2cc(C(=O)NCC(=O)O)nn2CC(=O)Nc2ccc(Cl)cn2)CC1 [Example 94, {[1-[(5-Chloro-pyridin-2-ylcarbamoyl)-methyl]-5-(1-isopropyl-piperidin-4-ylcarbamoyl)-1H-pyrazole-3-carbonyl]-amino}-acetic acid] |
| 7.09 | CC(C)N1CCC(NC(=O)c2cc(C(=O)OCCO)nn2Cc2cc(-c3ccc(Cl)s3)on2)CC1 [Example 110, 1-[5-(5-Chloro-thiophen-2-yl)-isoxazol-3-ylmethyl]-5-(1-isopropyl-piperidin-4-ylcarbamoyl)-1H-pyrazole-3-carboxylic acid 2-hydroxy-ethyl ester] |
| 7.89 | CC(C)N1CCC(NC(=O)c2cc(-c3cccs3)nn2Cc2cc3ccc(Cl)cc3s2)CC1 [Example 15, 2-(6-Chloro-benzo[b]thiophen-2-ylmethyl)-5-thiophen-2-yl-2H-pyrazole-3-carboxylic acid (1-isopropyl-piperidin-4-yl)-amide] |
| 7.80 | COCCOC(=O)c1cc(C(=O)NC2CCN(C(C)C)CC2)n(CC(=O)Nc2ccc(Cl)cn2)n1 [Example 106, 1-[(5-Chloro-pyridin-2-ylcarbamoyl)-methyl]-5-(1-isopropyl-piperidin-4-ylcarbamoyl)-1H-pyrazole-3-carboxylic acid 2-methoxy-ethyl ester] |
| 6.95 | Cc1cc(C(=O)NC2CCN(C(C)C)CC2)n(Cc2cc(-c3ccc(Cl)s3)on2)n1 [Example 3, 2-[5-(5-Chloro-thiophen-2-yl)-isoxazol-3-ylmethyl]-5-methyl-2H-pyrazole-3-carboxylic acid (1-isopropyl-piperidin-4-yl)-amide] |
| 6.85 | CC(C)N1CCC(NC(=O)c2cc(C(=O)N3CCC3)n(Cc3cc(-c4ccc(Cl)s4)on3)n2)CC1 [Example 86, 5-(Azetidine-1-carbonyl)-1-[5-(5-chloro-thiophen-2-yl)-isoxazol-3-ylmethyl]-1H-pyrazole-3-carboxylic acid (1-isopropyl-piperidin-4-yl)-amide] |

| Structure (SMILES) | pKi |
| --- | --- |
| CNC(=O)c1cc(C(=O)NC2CCN(C(C)C)CC2)n(Cc2cc(-c3ccc(Cl)s3)on2)n1 [Example 26, 1-[5-(5-Chloro-thiophen-2-yl)-isoxazol-3-ylmethyl]-1H-pyrazole-3,5-dicarboxylic acid 5-[(1-isopropyl-piperidin-4-yl)-amide] 3-methylamide] | 7.17 |
| CC(C)N1CCC(NC(=O)c2cc(C(=O)N3CCC[C@H]3CO)nn2Cc2cc(-c3ccc(Cl)s3)on2)CC1 [Example 64, 2-[5-(5-Chloro-thiophen-2-yl)-isoxazol-3-ylmethyl]-5-(2S,2-hydroxymethyl-pyrrolidine-1-carbonyl)-2H-pyrazole-3-carboxylic acid (1-isopropyl-piperidin-4-yl)-amide] | 7.05 |
| CC(C)N1CCC(NC(=O)c2cc(C(=O)NCCN3CCOCC3)nn2Cc2cc(-c3ccc(Cl)s3)on2)CC1 [Example 70, 1-[5-(5-Chloro-thiophen-2-yl)-isoxazol-3-ylmethyl]-1H-pyrazole-3,5-dicarboxylic acid 5-[(1-isopropyl-piperidin-4-yl)-amide] 3-[(2-morpholin-4-yl-ethyl)-amide]] | 6.74 |
| CCCc1cc(C(=O)NC2CCN(C(C)C)CC2)n(Cc2cc(-c3ccc(Cl)s3)on2)n1 [Example 8, 2-[5-(5-Chloro-thiophen-2-yl)-isoxazol-3-ylmethyl]-5-propyl-2H-pyrazole-3-carboxylic acid (1-isopropyl-piperidin-4-yl)-amide] | 7.27 |
| CC(C)N1CCC(NC(=O)c2cc(C(=O)N3CC(O)C3)nn2CC(=O)Nc2ccc(Cl)cn2)CC1 [Example 95, 2-[(5-Chloro-pyridin-2-ylcarbamoyl)-methyl]-5-(3-hydroxy-azetidine-1-carbonyl)-2H-pyrazole-3-carboxylic acid (1-isopropyl-piperidin-4-yl)-amide] | 7.41 |
| CC(C)N1CCC(NC(=O)c2cc(C(=O)NC3CCC3)nn2CC(=O)Nc2ccc(Cl)cn2)CC1 [Example 52, 1-[(5-Chloro-pyridin-2-ylcarbamoyl)-methyl]-1H-pyrazole-3,5-dicarboxylic acid 3-cyclobutylamide 5-[(1-isopropyl-piperidin-4-yl)-amide]] | 7.80 |
